IC50, half-life and EC50 data for eight compounds are collected here from ChEMBL document CHEMBL3120129, “Enantiomeric atropisomers inhibit HCV polymerase and/or HIV matrix: characterizing hindered bond rotations and target selectivity” (J Med Chem, 2014).

Structures are written as SMILES.

Series [1] is described as follows: Inhibition of HCV genotype 1b hexa-histidine-tagged NS5B polymerase expressed in baculovirus infected cell system. Also noted: species or system Hepatitis C virus subtype 1b.
Series [2] is described as follows: Inhibition of HIV1 NL-4.3 matrix (1 to 132) expressed in BL21(DE3) cells using [PI(4,5)P2]2 as substrate after 30 mins by fluorescence polarization assay. Also noted: species or system Human immunodeficiency virus 1.
The nature of series [3]: Apparent half life of the compound assessed as atropisomer interconversion by HPLC analysis. Type of series: physicochemical. The note with it: read-out: t1/2(app).
For series [4], the system named is Hepatitis C virus. The series can be described thus: Antiviral activity against HCV genotype 1b by HCV replicon assay. Type of series: functional, organism-based, Hepacivirus hominis.
For series [5], the system named is Human immunodeficiency virus 1. The series can be described thus: Antiviral activity against HIV1 NL-4.3. Type of series: functional, organism-based. The note with it: Human immunodeficiency virus 1, NL-4.3.

With `CC(C)N(c1ccc(Oc2ccccc2C(F)(F)F)cc1C(=O)O)C(=O)[C@H]1CC[C@H](C)CC1`, the IC50 in series [1] is 190 nM; in series [2] it was greater than 175000 nM.
In turn, `CC(C)N(c1cc(F)c(Oc2ncc(CCn3nccn3)cc2C(F)(F)F)cc1C(=O)O)C(=O)[C@H]1CC[C@H](C)CC1` came in with an IC50 in series [1] of 68 nM.
On the same count and under the same terms, the result for `COC[C@H](C)N(c1cc(F)c(Oc2ncc(CCn3nccn3)cc2C(F)(F)F)cc1C(=O)O)C(=O)[C@H]1CC[C@H](C)CC1` reads 68 nM; that for `COC[C@H](C)N(c1ccc(Oc2ncc(CCn3nccn3)cc2C(F)(F)F)c(F)c1)C(=O)[C@H]1CC[C@H](C)CC1`, 56000 nM.
Turning to `Cc1cc(OCc2cnc(Oc3ccc(N(C(=O)[C@H]4CC[C@H](C)CC4)C(C)C)c(C(=O)O)c3)c(C(F)(F)F)c2)c2ccccc2n1`, the half-life in series [3] amounted to 1.15 h.
Consider `C[C@H]1CC[C@H](C(=O)Nc2ccc(Oc3ccccc3C(F)(F)F)cc2C(=O)O)CC1`, for which the IC50 in series [1] is 15000 nM; in series [2], greater than 95000 nM.
As to `CN(c1ccc(Oc2ccccc2C(F)(F)F)cc1C(=O)O)C(=O)[C@H]1CC[C@H](C)CC1`, the IC50 in series [1] was 200 nM; in series [2], greater than 100000 nM. This compound also gave a concentration giving a half-maximal response (EC50) in series [4] of 1100 nM.
As for `COc1ccc(C(=O)Nc2ccc(Oc3ccc(N(C(=O)[C@H]4CC[C@H](C)CC4)C(C)C)c(C(=O)O)c3)cc2)cc1`, the IC50 is 630 nM in series [1] and 3400 nM in series [2]. In addition, the concentration giving a half-maximal response (EC50) in series [4] was determined as 950 nM; in series [5], 2800 nM.
